# Measurements: patent publication US20140024527A1, “HERBICIDAL PYRAZINONES” (E I DU DE NEMOURS AND COMPANY, priority 2011, published 2014)
# What was measured:
# Type in all cases: in vivo
# [1] = tested on: barnyardgrass (Echinochloa crus-galli); assay: Test A postemergence; conditions: 0 to 100 scale, 0 no effect, 100 complete control, approx. 10 days
# Description: (§1) Seeds of barnyardgrass (Echinochloa crus-galli), large crabgrass (Digitaria sanguinalis), giant foxtail (Setaria faberii), morningglory (Ipomoea spp.), pigweed (Amaranthus retroflexus), velvetleaf (Abutilon theophrasti), wheat (Triticum aestivum) and corn (Zea mays) were planted into a blend of loam soil and sand and treated preemergence with a directed soil spray using test chemicals formulated in a non-phytotoxic solvent mixture which included a surfactant. At the same time these species were also treated with postemergence applications of test compounds formulated in the same manner. Plants ranged in height from 2 to 10 cm and were in the one- to two-leaf stage for the postemergence treatments. Treated plants and untreated controls were maintained in a greenhouse for approximately 10 days, after which time all treated plants were compared to untreated controls and visually evaluated for injury. Plant response ratings, summarized in Table A, are based on a 0 to 100 scale where 0 is no effect and 100 is complete control.
# [2] = tested on: corn (Zea mays); assay: Test A postemergence; conditions: 0 to 100 scale, 0 no effect, 100 complete control, approx. 10 days
# Description: as §1
# [3] = tested on: giant foxtail (Setaria faberii); assay: Test A postemergence; conditions: 0 to 100 scale, 0 no effect, 100 complete control, approx. 10 days
# Description: as §1
# [4] = tested on: large crabgrass (Digitaria sanguinalis); assay: Test A postemergence; conditions: 0 to 100 scale, 0 no effect, 100 complete control, approx. 10 days
# Description: as §1
# [5] = tested on: morningglory (Ipomoea spp.); assay: Test A postemergence; conditions: 0 to 100 scale, 0 no effect, 100 complete control, approx. 10 days
# Description: as §1
# [6] = tested on: pigweed (Amaranthus retroflexus); assay: Test A postemergence; conditions: 0 to 100 scale, 0 no effect, 100 complete control, approx. 10 days
# Description: as §1
# [7] = tested on: velvetleaf (Abutilon theophrasti); assay: Test A postemergence; conditions: 0 to 100 scale, 0 no effect, 100 complete control, approx. 10 days
# Description: as §1
# [8] = tested on: wheat (Triticum aestivum); assay: Test A postemergence; conditions: 0 to 100 scale, 0 no effect, 100 complete control, approx. 10 days
# Description: as §1
# [9] = tested on: barnyardgrass (Echinochloa crus-galli); assay: Test A preemergence; conditions: 0 to 100 scale, 0 no effect, 100 complete control, approx. 10 days
# Description: as §1
# [10] = tested on: corn (Zea mays); assay: Test A preemergence; conditions: 0 to 100 scale, 0 no effect, 100 complete control, approx. 10 days
# Description: as §1
# [11] = tested on: giant foxtail (Setaria faberii); assay: Test A preemergence; conditions: 0 to 100 scale, 0 no effect, 100 complete control, approx. 10 days
# Description: as §1
# [12] = tested on: large crabgrass (Digitaria sanguinalis); assay: Test A preemergence; conditions: 0 to 100 scale, 0 no effect, 100 complete control, approx. 10 days
# Description: as §1
# [13] = tested on: morningglory (Ipomoea spp.); assay: Test A preemergence; conditions: 0 to 100 scale, 0 no effect, 100 complete control, approx. 10 days
# Description: as §1
# [14] = tested on: pigweed (Amaranthus retroflexus); assay: Test A preemergence; conditions: 0 to 100 scale, 0 no effect, 100 complete control, approx. 10 days
# Description: as §1
# [15] = tested on: velvetleaf (Abutilon theophrasti); assay: Test A preemergence; conditions: 0 to 100 scale, 0 no effect, 100 complete control, approx. 10 days
# Description: as §1
# [16] = tested on: wheat (Triticum aestivum); assay: Test A preemergence; conditions: 0 to 100 scale, 0 no effect, 100 complete control, approx. 10 days
# Description: as §1
# [17] = tested on: barnyardgrass (Echinochloa crus-galli); assay: Test B flooded paddy test; conditions: Flood
# Description: (§2) Plant species in the flooded paddy test consisted of rice (Oryza sativa), umbrella sedge (Cyperus difformis), ducksalad (Heteranthera limosa) and barnyardgrass (Echinochloa crus-galli) grown to the 2-leaf stage for testing. At time of treatment, test pots were flooded to 3 cm above the soil surface, treated by application of test compounds directly to the paddy water, and then maintained at that water depth for the duration of the test. Treated plants and controls were maintained in a greenhouse for 13 to 15 days, after which time all species were compared to controls and visually evaluated. Plant response ratings, summarized in Table B, are based on a scale of 0 to 100 where 0 is no effect and 100 is complete control. A dash (-) response means no test result.
# [18] = tested on: ducksalad (Heteranthera limosa); assay: Test B flooded paddy test; conditions: Flood, scale 0 to 100
# Description: as §2
# [19] = tested on: rice (Oryza sativa); assay: Test B flooded paddy test; conditions: Flood, scale 0 to 100
# Description: as §2
# [20] = tested on: umbrella sedge (Cyperus difformis); assay: Test B flooded paddy test; conditions: Flood, scale 0 to 100
# Description: as §2
# [21] = 250 g ai/ha, scale 0 to 100 (0 no effect, 100 complete control)
compound,measurement,setting,value
"O=C1CCCC(O)=C1C(=O)c1nc(Cl)c(-c2cccc(Cl)c2)n(C2CCCCC2)c1=O [Compound 3, 5-chloro-6-(3-chlorophenyl)-1-cyclohexyl-3-[(2-hydroxy-6-oxo-1-cyclohexen-1-yl)carbonyl]-2(1H)-pyrazinone]","Plant response rating, Barnyardgrass",[1]; 62 g ai/ha,0
same,"Plant response rating, Barnyardgrass",[1]; 250 g ai/ha,0
same,"Plant response rating, Corn",[2]; 62 g ai/ha,0
same,"Plant response rating, Corn",[2]; 250 g ai/ha,0
same,"Plant response rating, Foxtail, Giant",[3]; 62 g ai/ha,0
same,"Plant response rating, Foxtail, Giant",[3]; 250 g ai/ha,0
same,"Plant response rating, Crabgrass, Large",[4]; 62 g ai/ha,0
same,"Plant response rating, Crabgrass, Large",[4]; 250 g ai/ha,10
same,"Plant response rating, Morningglory",[5]; 62 g ai/ha,0
same,"Plant response rating, Morningglory",[5]; 250 g ai/ha,30
same,"Plant response rating, Pigweed",[6]; 62 g ai/ha,0
same,"Plant response rating, Pigweed",[6]; 250 g ai/ha,30
same,"Plant response rating, Velvetleaf",[7]; 62 g ai/ha,60
same,"Plant response rating, Velvetleaf",[7]; 250 g ai/ha,100
same,"Plant response rating, Wheat",[8]; 62 g ai/ha,0
same,"Plant response rating, Wheat",[8]; 250 g ai/ha,0
same,"Plant response rating, Barnyardgrass",[9]; 62 g ai/ha,0
same,"Plant response rating, Barnyardgrass",[9]; 250 g ai/ha,20
same,"Plant response rating, Corn",[10]; 62 g ai/ha,0
same,"Plant response rating, Corn",[10]; 250 g ai/ha,0
same,"Plant response rating, Foxtail, Giant",[11]; 62 g ai/ha,0
same,"Plant response rating, Foxtail, Giant",[11]; 250 g ai/ha,0
same,"Plant response rating, Crabgrass, Large",[12]; 62 g ai/ha,0
same,"Plant response rating, Crabgrass, Large",[12]; 250 g ai/ha,30
same,"Plant response rating, Morningglory",[13]; 62 g ai/ha,0
same,"Plant response rating, Morningglory",[13]; 250 g ai/ha,10
same,"Plant response rating, Pigweed",[14]; 62 g ai/ha,0
same,"Plant response rating, Pigweed",[14]; 250 g ai/ha,60
same,"Plant response rating, Velvetleaf",[15]; 62 g ai/ha,40
same,"Plant response rating, Velvetleaf",[15]; 250 g ai/ha,80
same,"Plant response rating, Wheat",[16]; 62 g ai/ha,0
same,"Plant response rating, Wheat",[16]; 250 g ai/ha,0
same,"Plant response rating, Barnyardgrass","[17]; 31 g ai/ha, scale 0 to 100",0
same,"Plant response rating, Barnyardgrass","[17]; 62 g ai/ha, scale 0 to 100",0
same,"Plant response rating, Barnyardgrass","[17]; 125 g ai/ha, scale 0 to 100",0
same,"Plant response rating, Barnyardgrass",[17]; [21],0
same,"Plant response rating, Ducksalad",[18]; 31 g ai/ha,0
same,"Plant response rating, Ducksalad",[18]; 62 g ai/ha,20
same,"Plant response rating, Ducksalad",[18]; 125 g ai/ha,80
same,"Plant response rating, Ducksalad",[18]; 250 g ai/ha,80
same,"Plant response rating, Rice",[19]; 31 g ai/ha,0
same,"Plant response rating, Rice",[19]; 62 g ai/ha,0
same,"Plant response rating, Rice",[19]; 125 g ai/ha,0
same,"Plant response rating, Rice",[19]; 250 g ai/ha,0
same,"Plant response rating, Sedge, Umbrella",[20]; 31 g ai/ha,0
same,"Plant response rating, Sedge, Umbrella",[20]; 62 g ai/ha,0
same,"Plant response rating, Sedge, Umbrella",[20]; 125 g ai/ha,30
same,"Plant response rating, Sedge, Umbrella",[20]; 250 g ai/ha,60
"O=C1CCCC(O)=C1C(=O)c1nc(Cl)c(-c2cccc(F)c2)n(C2CCCCC2)c1=O [Compound 2, 5-chloro-1-cyclohexyl-6-(3-fluorophenyl)-3-[(2-hydroxy-6-oxo-1-cyclohexen-1-yl)carbonyl]-2(1H)pyrazinone]","Plant response rating, Barnyardgrass",[1]; 125 g ai/ha,0
same,"Plant response rating, Barnyardgrass",[1]; 500 g ai/ha,30
same,"Plant response rating, Corn",[2]; 125 g ai/ha,0
same,"Plant response rating, Corn",[2]; 500 g ai/ha,0
same,"Plant response rating, Foxtail, Giant",[3]; 125 g ai/ha,0
same,"Plant response rating, Foxtail, Giant",[3]; 500 g ai/ha,20
same,"Plant response rating, Crabgrass, Large",[4]; 125 g ai/ha,0
same,"Plant response rating, Crabgrass, Large",[4]; 500 g ai/ha,30
same,"Plant response rating, Morningglory",[5]; 125 g ai/ha,60
same,"Plant response rating, Morningglory",[5]; 500 g ai/ha,90
same,"Plant response rating, Pigweed",[6]; 125 g ai/ha,30
same,"Plant response rating, Pigweed",[6]; 500 g ai/ha,70
same,"Plant response rating, Velvetleaf",[7]; 125 g ai/ha,70
same,"Plant response rating, Velvetleaf",[7]; 500 g ai/ha,100
same,"Plant response rating, Wheat",[8]; 125 g ai/ha,0
same,"Plant response rating, Wheat",[8]; 500 g ai/ha,0
same,"Plant response rating, Barnyardgrass",[9]; 125 g ai/ha,0
same,"Plant response rating, Barnyardgrass",[9]; 500 g ai/ha,40
same,"Plant response rating, Corn",[10]; 125 g ai/ha,0
same,"Plant response rating, Corn",[10]; 500 g ai/ha,0
same,"Plant response rating, Foxtail, Giant",[11]; 125 g ai/ha,0
same,"Plant response rating, Foxtail, Giant",[11]; 500 g ai/ha,30
same,"Plant response rating, Crabgrass, Large",[12]; 125 g ai/ha,0
same,"Plant response rating, Crabgrass, Large",[12]; 500 g ai/ha,50
same,"Plant response rating, Morningglory",[13]; 125 g ai/ha,0
same,"Plant response rating, Morningglory",[13]; 500 g ai/ha,80
same,"Plant response rating, Pigweed",[14]; 125 g ai/ha,0
same,"Plant response rating, Pigweed",[14]; 500 g ai/ha,80
same,"Plant response rating, Velvetleaf",[15]; 125 g ai/ha,0
same,"Plant response rating, Velvetleaf",[15]; 500 g ai/ha,90
same,"Plant response rating, Wheat",[16]; 125 g ai/ha,0
same,"Plant response rating, Wheat",[16]; 500 g ai/ha,0
same,"Plant response rating, Barnyardgrass","[17]; 31 g ai/ha, scale 0 to 100",0
same,"Plant response rating, Barnyardgrass","[17]; 62 g ai/ha, scale 0 to 100",0
same,"Plant response rating, Barnyardgrass","[17]; 125 g ai/ha, scale 0 to 100",0
same,"Plant response rating, Barnyardgrass",[17]; [21],0
same,"Plant response rating, Ducksalad",[18]; 31 g ai/ha,0
same,"Plant response rating, Ducksalad",[18]; 62 g ai/ha,0
same,"Plant response rating, Ducksalad",[18]; 125 g ai/ha,60
same,"Plant response rating, Ducksalad",[18]; 250 g ai/ha,80
same,"Plant response rating, Rice",[19]; 31 g ai/ha,0
same,"Plant response rating, Rice",[19]; 62 g ai/ha,0
same,"Plant response rating, Rice",[19]; 125 g ai/ha,0
same,"Plant response rating, Rice",[19]; 250 g ai/ha,0
same,"Plant response rating, Sedge, Umbrella",[20]; 31 g ai/ha,0
same,"Plant response rating, Sedge, Umbrella",[20]; 62 g ai/ha,0
same,"Plant response rating, Sedge, Umbrella",[20]; 125 g ai/ha,20
same,"Plant response rating, Sedge, Umbrella",[20]; 250 g ai/ha,60
